One compound from publication PMC11503657 (Chemical Science, 2024) can be followed below.

In one experiment the target is CuZnAβ1–16 (Homo sapiens, UniProt P05067). The class given is biochemical. The settings on record: pH 7.4.
A further experiment deals with CuAβ1–16 complex (Homo sapiens, UniProt P05067). The class given is biochemical. Conditions: pH 7.4.

Regarding `O=C(O)CN(CCN(CC(=O)O)CC(=O)O)CC(=O)O` [EDTA, 2,2′,2′′,2′′′-(ethane-1,2-diyldinitrilo)tetraacetic acid], at CuZnAβ1–16, the “ROS production: % of Asc consumption in 30 min” value was 100% and the “ROS production: % of ROS arrest” value is listed as 0%. Further, at CuAβ1–16 complex, the “ROS production: % of Asc consumption in 30 min” value worked out at 11.3% and the “ROS production: % of ROS arrest” value came to 88.7%.
